Measurements from patent US9943607B2, “Beta-glucan compounds, compositions, and methods” (Biothera, Inc., priority 2011, dated 2018).
Each block holds one substance with its values, some of them ahead of it.

Columns and labels:
[1] = test system: human B cells in whole blood; assay: β-glucan binding to B cells in whole blood (BfD IV staining, flow cytometry)
Protocol: Blood was collected from a healthy donor with 10 Units/mL Heparin. 100 μL of blood was mixed with IMPRIME PGG concentrations and incubated at 37° C. for 60 minutes. Cells were washed with 2 mL of PBS and supernatant removed by aspiration. Cells were then stained with 20 μL of BfD IV (U.S. Pat. No. 6,294,321) for 30 minutes before washing again with PBS. 10 μL of goat anti-mouse IgM FITC added to stain for BfD IV positive cells, while 10 μL of anti-CD19 APC was added to stain the B cell population for FACS analysis. Cells were incubated for 30 minutes at room temperature before washing with PBS. The red cells in the blood were lysed by the addition of 2 mL of BD Lyse and fixed with 2% paraformadehyde before analysis on an LSR II flow cytometer. Analysis was performed using FlowJo software.

[2] = test system: human B cells in enriched PBMC; assay: β-glucan binding to B cells in enriched PBMC (BfD IV staining, flow cytometry); conditions: various hexose concentrations, 37° C., two hours
Protocol: Enriched PBMC were resuspended at 1×10^6 cells/mL in RPMI 1640 supplemented with 10% serum. The β-glucans (IMPRIME PGG (B) and laminarin (C)) at various hexose concentration were added to the cells and incubated in a 37° C., 5% C02 humidified incubator for two hours. After incubation, cells were washed twice with FACS buffer (HBSS supplemented with 1% FBS and 0.1% sodium azide) to remove any unbound β-glucan, and subsequently treated with Fc block. After the Fc block step, cells were stained with the monoclonal antibody BfD IV (U.S. Pat. No. 6,294,321) for 30 minutes at 4° C. and washed twice with cold FACS buffer. Cells were then incubated with FITC-conjugated F(ab′)2 goat anti-mouse IgM for 30 minutes at 4° C. and washed once with cold FACS buffer before fixing with 1% paraformaldehyde. Events were collected on a LSRII flow cytometer and analysis was performed using FlowJo software. Results are shown in FIG. 2B (IMPRIME PGG) and FIG. 2C (laminarin).

CD19+ B cells = assay: Targeted binding of β-glucan and β-glucan-ERBITUX conjugate to CD19+ B cells in whole blood; design: species or system human; conditions: 10 μg/mL, 30 minutes at 37° C.
Protocol: Cells were washed twice with PBS before staining with the β-glucan specific antibody BfD IV (U.S. Pat. No. 6,294,321). Cells were washed again and stained with an antibodies specific for human IgG to detect ERBITUX and CD19 to label B cells. Cells were analyzed on and LSRII flow cytometer and the groups were compared by gating on CD19^+ B cells.

[3] = biological target: T1, complement receptor 2, (CR2; aka CD21) on B cells (Homo sapiens, UniProt P20023); assay: β-glucan binding and CR2 blocking with anti-CR2 antibody; conditions: IMPRIME PGG at 100 μg/mL; whole blood or PBMC; anti-CR2 clone 1048 at 10 μg/mL
T1 construct: endogenous in cells; host or cells: B cells in whole blood or PBMC
T1 sequence (P20023 21-1033): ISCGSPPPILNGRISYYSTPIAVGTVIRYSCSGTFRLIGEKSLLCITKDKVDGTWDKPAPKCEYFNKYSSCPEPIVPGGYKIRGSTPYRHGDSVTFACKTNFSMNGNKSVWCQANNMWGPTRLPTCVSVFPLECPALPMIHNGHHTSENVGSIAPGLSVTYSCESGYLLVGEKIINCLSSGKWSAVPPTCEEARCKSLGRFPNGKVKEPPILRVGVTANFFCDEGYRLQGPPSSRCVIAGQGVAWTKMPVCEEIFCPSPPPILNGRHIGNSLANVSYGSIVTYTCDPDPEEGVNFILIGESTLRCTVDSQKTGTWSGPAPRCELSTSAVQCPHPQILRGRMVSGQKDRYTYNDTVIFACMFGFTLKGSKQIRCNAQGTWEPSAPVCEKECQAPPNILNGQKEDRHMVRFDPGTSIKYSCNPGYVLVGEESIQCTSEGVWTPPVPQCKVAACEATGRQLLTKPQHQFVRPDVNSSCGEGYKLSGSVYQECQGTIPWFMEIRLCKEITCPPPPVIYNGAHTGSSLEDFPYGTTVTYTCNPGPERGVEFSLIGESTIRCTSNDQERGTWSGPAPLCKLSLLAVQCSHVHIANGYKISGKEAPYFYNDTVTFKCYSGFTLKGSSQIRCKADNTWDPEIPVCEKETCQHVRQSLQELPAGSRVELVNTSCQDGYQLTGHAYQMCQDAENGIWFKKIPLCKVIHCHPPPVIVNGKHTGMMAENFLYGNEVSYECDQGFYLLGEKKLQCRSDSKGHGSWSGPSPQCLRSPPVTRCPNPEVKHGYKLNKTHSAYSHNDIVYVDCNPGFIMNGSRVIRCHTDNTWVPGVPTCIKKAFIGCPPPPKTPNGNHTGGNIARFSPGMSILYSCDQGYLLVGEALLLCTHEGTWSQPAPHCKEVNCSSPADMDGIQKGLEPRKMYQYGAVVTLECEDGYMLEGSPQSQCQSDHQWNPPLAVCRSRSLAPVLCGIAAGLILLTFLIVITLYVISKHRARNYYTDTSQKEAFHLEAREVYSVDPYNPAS
Protocol: Whole blood or PBMC were pre-incubated with specific receptor blocking antibodies or the relevant isotype controls at 4° C. for 30-45 minutes before addition of IMPRIME PGG at 100 μg/mL. Binding to B cells was performed as described in Example 1. Clone 1048, the mouse mAb against CR2, and mouse IgG1 isotype control was used at 10 μg/mL/1×10^6 cells. Results are shown in FIG. 3B (Whole Blood) and FIG. 3C (PBMC).

Raji cells = assay: Binding of IMPRIME PGG to B cell tumor line Raji; design: species or system human; conditions: 50 mcg/mL and 200 mcg/mL
Daudi cells = assay: Binding of IMPRIME PGG to B cell tumor line Daudi; design: species or system human; conditions: 50 mcg/mL and 200 mcg/mL
B cells [4] = assay: Calcium flux in PBMC B cells treated in vitro with soluble β-glucan, then stimulated with anti-IgM; format: cell-based, human; conditions: 100 μg/mL, 37° C., one hour; anti-IgM 2.6 μg/mL
Protocol: FURA RED and FLUO-4 (each from Invitrogen, Life Technologies Corp., Carlsbad, Calif.) calcium stain was added to serum free RPMI medium to a final concentration of 3 μM for each dye, then incubated at 37° C. for 30 minutes. PBMCs mixed 1:1 with media containing 10% FCS and incubated an additional 10 minutes. The cells were washed 2× with media containing 10% FCS. Cells were resuspended in RPMI with 10% human serum.
The resuspended cells were incubated with or without the addition of 100 μg/mL IMPRIME PGG at 37° C. for one hour. The monoclonal antibody CD20 APC (BioLegend, Inc., San Diego, Calif.) was added to each tube for 10 minute incubation before washing 2× with RPMI containing 10% FCS. Cells were resuspended in RPMI with 10% FCS for FACS analysis. Calcium flux was induced by stimulating the B cells with goat anti-human IgM at 2.6 μg/mL.

B cells [5] = assay: Calcium flux in B cells of subjects treated in vivo with particulate oral β-glucan, then stimulated with anti-IgM; design: species or system human; conditions: 100 mg/day to 1000 mg/day, anti-IgM 10, 2 or 0.4 μg/mL
Protocol: Blood was drawn from untreated donors (n=15) or donors (n=12) treated with particulate oral β-glucan (U.S. Pat. No. 7,981,447) at dosages ranging from 100 mg/day to 1000 mg/day. PBMCs were isolated from blood using a ficoll gradient.
The isolated PBMCs were treated with 6 μM FURA RED and 3 μM FLUO-4 (each from Invitrogen, Life Technologies Corp., Carlsbad, Calif.) in PBS for 45 minutes at 37° C. The cells were washed 2× with PBS and stained with anti-CD20 APC (BioLegend, Inc., San Diego, Calif.) for 20 minutes at room temperature. Cells were washed 2× and resuspended in RPMI containing 2.5% FCS for FACS analysis. Calcium flux was induced by stimulating the B cells with goat anti-human IgM at 10 μg/mL, 2 μg/mL, or 0.4 μg/mL.

Substance: BT-1110: bovine serum albumin (BSA) conjugated to IMPRIME PGG
MFI of BfD IV staining on B cells compared to unconjugated IMPRIME PGG ([1]; 50 μg/mL, whole blood): higher

Substance: Laminarin [reference compound]
binding to B cells in enriched PBMC (MFI of BfD IV staining) [2]: bind directly to human B cells

binding to CR2 on B cells (blocking by anti-CR2 antibody) [3]: binds to complement receptor 2
Substance: β(1,6)-[poly-1,3)-D-glucopyranosyl]-poly-b(1,3)-D-glucopyranose [IMPRIME PGG]
binding to B cells in enriched PBMC (MFI of BfD IV staining) [2]: bind directly to human B cells
β-glucan detected on CD19+ B cells with anti-β-glucan antibody BfD IV (CD19+ B cells): positive for β-glucan
binding to Raji B cell tumor line (Raji cells): bound to these tumor lines in a concentration-dependent manner
binding to Daudi B cell tumor line (Daudi cells): bound to these tumor lines in a concentration-dependent manner
calcium flux of B cells after goat anti-human IgM stimulation (B cells [4]): larger and more sustained calcium flux
binding to B cells in whole blood (MFI of BfD IV staining) ([1]; various concentrations, 37° C., 60 minutes): bind directly to human B cells

Substance: β(1,6)-[poly-1,3)-D-glucopyranosyl]-poly-b(1,3)-D-glucopyranose [particulate form of β-glucan]
calcium flux of B cells after goat anti-human IgM stimulation, treated vs untreated subjects (B cells [5]): decrease calcium flux
